Reference: PubChem BioAssay AID330 (DTP/NCI, 2004)
Values joined by “and” are separate entries in the source; they are usually repeats but may differ in a detail not shown here. Identical values can stand only once. Inconclusive results and toxic doses are left out.

System: P388 leukemia ip, CD2F1 mice, survival T/C
Test: NCI In Vivo Anticancer Drug Screen. Data for tumor model P388 Leukemia (intraperitoneal) in CD2F1 (CDF1) mice
Settings: endpoint: median survival time, higher = longer survival
Method in brief: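 Mice carrying the transplanted tumor received test compound or vehicle. Survival was recorded in each group, and the value is the treated-group measurement divided by that of the vehicle-treated control group.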

[1] = dose: 50.0 mg/kg/injection, schedule: Q01DX005 (ip), vehicle: Klucel (hydroxypropylcellulose) (HPC)
[2] = dose: 100.0 mg/kg/injection, schedule: Q01DX005 (ip), vehicle: Klucel (hydroxypropylcellulose) (HPC)
[3] = dose: 200.0 mg/kg/injection, schedule: Q01DX005 (ip), vehicle: Klucel (hydroxypropylcellulose) (HPC)
[4] = dose: 25.0 mg/kg/injection, schedule: Q01DX009 (ip), vehicle: Klucel (hydroxypropylcellulose) (HPC)
[5] = dose: 100.0 mg/kg/injection, schedule: Q01DX009 (ip), vehicle: Klucel (hydroxypropylcellulose) (HPC)
[6] = dose: 200.0 mg/kg/injection, schedule: Q01DX009 (ip), vehicle: Klucel (hydroxypropylcellulose) (HPC)
[7] = dose: 60.0 mg/kg/injection, schedule: Q01DX005 (ip), vehicle: Klucel (hydroxypropylcellulose) (HPC)
[8] = dose: 120.0 mg/kg/injection, schedule: Q01DX005 (ip), vehicle: Klucel (hydroxypropylcellulose) (HPC)
[9] = dose: 240.0 mg/kg/injection, schedule: Q01DX005 (ip), vehicle: Klucel (hydroxypropylcellulose) (HPC)
[10] = dose: 50.0 mg/kg/injection, schedule: Q01DX005 (ip), vehicle: saline with Tween-80
[11] = dose: 100.0 mg/kg/injection, schedule: Q01DX005 (ip), vehicle: saline with Tween-80
[12] = dose: 200.0 mg/kg/injection, schedule: Q01DX005 (ip), vehicle: saline with Tween-80
[13] = dose: 60.0 mg/kg/injection, schedule: Q01DX005 (ip), vehicle: saline with Tween-80
[14] = dose: 120.0 mg/kg/injection, schedule: Q01DX005 (ip), vehicle: saline with Tween-80
[15] = dose: 240.0 mg/kg/injection, schedule: Q01DX005 (ip), vehicle: saline with Tween-80
[16] = dose: 100.0 mg/kg/injection, schedule: Q01DX009 (ip), vehicle: saline with Tween-80
[17] = dose: 200.0 mg/kg/injection, schedule: Q01DX009 (ip), vehicle: saline with Tween-80

SMILES: O=C(NC[N+]12CCO[B-]1(c1ccc(Cl)cc1)OCC2)c1ccccc1O (centres undefined)
- T/C [1]: 106 % of control
- T/C [2]: 98 % of control
- T/C [3]: 103 % of control

SMILES: O=C(Nc1nccs1)Nc1cc(F)ccc1F
- T/C [4]: 90 % of control
- T/C (dose: 50.0 mg/kg/injection, schedule: Q01DX009 (ip), vehicle: Klucel (hydroxypropylcellulose) (HPC)): 90 % of control
- T/C [5]: 90 % of control
- T/C [6]: 90 % of control

SMILES: N=C(N)c1ccc(N=Nc2c(O)ccc3cc(O)ccc23)cc1
- T/C (dose: 3.12 mg/kg/injection, schedule: Q01DX005 (ip), vehicle: Klucel (hydroxypropylcellulose) (HPC)): 104 % of control
- T/C (dose: 6.25 mg/kg/injection, schedule: Q01DX005 (ip), vehicle: Klucel (hydroxypropylcellulose) (HPC)): 101 % of control and 102 % of control
- T/C (dose: 12.5 mg/kg/injection, schedule: Q01DX005 (ip), vehicle: Klucel (hydroxypropylcellulose) (HPC)): 116 % of control (2×) and 95 % of control

SMILES: O=c1ccc2nccc3c4cc(O)ccc4n1c23
- T/C (dose: 1.75 mg/kg/injection, schedule: Q01DX009 (ip), vehicle: saline with Tween-80): 98 % of control
- T/C (dose: 7.0 mg/kg/injection, schedule: Q01DX009 (ip), vehicle: saline with Tween-80): 109 % of control

SMILES: CS/C(=C\c1ccc(C(=O)c2ccc(C)cc2)n1C)S(C)=O (centres undefined)
- T/C (dose: 30.0 mg/kg/injection, schedule: Q01DX005 (ip), vehicle: Klucel (hydroxypropylcellulose) (HPC)): 94 % of control
- T/C [7]: 91 % of control and 94 % of control
- T/C [8]: 92 % of control
- T/C [9]: 88 % of control

SMILES: Cc1ccc(N2C(=O)CCSC2=S)cc1C
- T/C (dose: 50.0 mg/kg/injection, schedule: Q01DX009 (ip), vehicle: suspension in saline): 108 % of control
- T/C (dose: 100.0 mg/kg/injection, schedule: Q01DX009 (ip), vehicle: suspension in saline): 89 % of control
- T/C (dose: 200.0 mg/kg/injection, schedule: Q01DX009 (ip), vehicle: suspension in saline): 99 % of control

SMILES: CCOC(=O)C1C(COCc2ccccc2)C2CCC1(OC)C=C2C (centres undefined)
- T/C [10]: 99 % of control
- T/C [11]: 97 % of control
- T/C [12]: 104 % of control

SMILES: COc1cccc2c1C(=O)c1c(O)c3c(c(O)c1C2=O)C[C@@](O)(C(C)=O)C[C@@H]3OC1CC(N2CCCCC2)C(O)C(C)O1 (some centres undefined)
- T/C (dose: 1.56 mg/kg/injection, schedule: Q04DX003 (ip), vehicle: water): 111 % of control
- T/C (dose: 6.25 mg/kg/injection, schedule: Q04DX003 (ip), vehicle: distilled water + Tween-80): 191 % of control
- T/C (dose: 6.25 mg/kg/injection, schedule: Q04DX003 (ip), vehicle: water): 163 % of control
- T/C (dose: 12.5 mg/kg/injection, schedule: Q04DX003 (ip), vehicle: distilled water + Tween-80): 106 % of control
- T/C (dose: 12.5 mg/kg/injection, schedule: Q04DX003 (ip), vehicle: water): 111 % of control
- T/C (dose: 25.0 mg/kg/injection, schedule: Q04DX003 (ip), vehicle: distilled water + Tween-80): 99 % of control

SMILES: O=C1CNC(=O)C(O)N1 (centres undefined)
- T/C [10]: 93 % of control
- T/C [11]: 100 % of control
- T/C [12]: 97 % of control

SMILES: COc1ccc(C2c3cc4c(cc3OC3(O)CCCC(=O)C23)OCO4)cc1 (centres undefined)
- T/C [13]: 100 % of control
- T/C [14]: 100 % of control
- T/C [15]: 93 % of control

SMILES: C=C1CC2(CCCC3(C)CCC(C(C)C)CC32C)OC1=O (centres undefined)
- T/C (dose: 100.0 mg/kg/injection, schedule: Q01DX001 (ip), vehicle: saline): 101 % of control
- T/C (dose: 200.0 mg/kg/injection, schedule: Q01DX001 (ip), vehicle: saline): 106 % of control
- T/C (dose: 400.0 mg/kg/injection, schedule: Q01DX001 (ip), vehicle: saline): 110 % of control

SMILES: O=[N+]([O-])c1ccc([S][Pb]([c]2ccccc2)([c]2ccccc2)[c]2ccccc2)cc1
- T/C (dose: 6.25 mg/kg/injection, schedule: Q01DX009 (ip), vehicle: Klucel (hydroxypropylcellulose) (HPC)): 100 % of control
- T/C (dose: 12.5 mg/kg/injection, schedule: Q01DX009 (ip), vehicle: Klucel (hydroxypropylcellulose) (HPC)): 102 % of control
- T/C [4]: 89 % of control

SMILES: O=c1c2ccccc2nc2n1CCc1c-2[nH]c2ccccc12
- T/C (dose: 3.75 mg/kg/injection, schedule: Q01DX009 (ip), vehicle: saline with Tween-80): 93 % of control
- T/C (dose: 7.5 mg/kg/injection, schedule: Q01DX009 (ip), vehicle: saline with Tween-80): 98 % of control
- T/C (dose: 15.0 mg/kg/injection, schedule: Q01DX009 (ip), vehicle: saline with Tween-80): 93 % of control

SMILES: S=P(Nc1ccccc1)(Nc1ccccc1)c1ccccc1
- T/C [5]: 103 % of control
- T/C [6]: 106 % of control
- T/C (dose: 400.0 mg/kg/injection, schedule: Q01DX009 (ip), vehicle: Klucel (hydroxypropylcellulose) (HPC)): 95 % of control

SMILES: Cc1ccc2c3c(c(O)c(C(C)(C)O)cc13)OC2=O
- T/C (dose: 15.63 mg/kg/injection, schedule: Q01DX005 (ip), vehicle: Klucel (hydroxypropylcellulose) (HPC)): 91 % of control
- T/C (dose: 31.25 mg/kg/injection, schedule: Q01DX005 (ip), vehicle: Klucel (hydroxypropylcellulose) (HPC)): 90 % of control
- T/C (dose: 62.5 mg/kg/injection, schedule: Q01DX005 (ip), vehicle: Klucel (hydroxypropylcellulose) (HPC)): 93 % of control
- T/C (dose: 125.0 mg/kg/injection, schedule: Q01DX005 (ip), vehicle: Klucel (hydroxypropylcellulose) (HPC)): 93 % of control
- T/C (dose: 250.0 mg/kg/injection, schedule: Q01DX005 (ip), vehicle: Klucel (hydroxypropylcellulose) (HPC)): 93 % of control

SMILES: O=C(O)CSCC(=O)Nc1cc(C(F)(F)F)cc(C(F)(F)F)c1
- T/C [7]: 95 % of control
- T/C [8]: 98 % of control
- T/C [9]: 113 % of control

SMILES: COC(=O)C(C(=O)OC)=C1C(=O)OCC1(C)C
- T/C (dose: 100.0 mg/kg/injection, schedule: Q04DX003 (ip), vehicle: saline): 101 % of control
- T/C (dose: 200.0 mg/kg/injection, schedule: Q04DX003 (ip), vehicle: saline): 100 % of control
- T/C (dose: 400.0 mg/kg/injection, schedule: Q04DX003 (ip), vehicle: saline): 100 % of control

SMILES: Cc1nc2[nH]cc(C)c2c(=O)[nH]1
- T/C [13]: 103 % of control
- T/C [14]: 97 % of control
- T/C [15]: 105 % of control

SMILES: COc1ccc(OC)c2c(=O)cc(C)[nH]c12
- T/C (dose: 16.5 mg/kg/injection, schedule: Q01DX009 (ip), vehicle: saline with Tween-80): 107 % of control and 112 % of control
- T/C (dose: 25.0 mg/kg/injection, schedule: Q01DX009 (ip), vehicle: saline with Tween-80): 107 % of control and 111 % of control and 121 % of control
- T/C (dose: 37.5 mg/kg/injection, schedule: Q01DX009 (ip), vehicle: saline with Tween-80): 113 % of control and 124 % of control
- T/C (dose: 50.0 mg/kg/injection, schedule: Q01DX009 (ip), vehicle: saline with Tween-80): 114 % of control
- T/C [16]: 107 % of control
- T/C [17]: 107 % of control

SMILES: CC(C(=O)c1ccc(Cl)cc1)c1ccccc1 (centres undefined)
- T/C (dose: 50.0 mg/kg/injection, schedule: Q01DX009 (ip), vehicle: saline): 96 % of control
- T/C (dose: 100.0 mg/kg/injection, schedule: Q01DX009 (ip), vehicle: saline): 105 % of control
- T/C (dose: 200.0 mg/kg/injection, schedule: Q01DX009 (ip), vehicle: saline): 99 % of control

SMILES: COC1=Cc2nc3ccccc3nc2OC1(C)C
- T/C [13]: 110 % of control
- T/C [14]: 100 % of control
- T/C [15]: 92 % of control

SMILES: CCOC(=O)c1nc(Cl)cn(O)c1=N
- T/C [16]: 104 % of control
- T/C [17]: 99 % of control
- T/C (dose: 400.0 mg/kg/injection, schedule: Q01DX009 (ip), vehicle: saline with Tween-80): 93 % of control

SMILES: C[C@@H]1CN(c2ccccc2)C[C@H](C)OS(=O)O1 (some centres undefined)
- T/C (dose: 50.0 mg/kg/injection, schedule: Q01DX001 (ip), vehicle: Klucel (hydroxypropylcellulose) (HPC)): 105 % of control
- T/C [1]: 96 % of control
- T/C (dose: 100.0 mg/kg/injection, schedule: Q01DX001 (ip), vehicle: Klucel (hydroxypropylcellulose) (HPC)): 103 % of control
- T/C [2]: 100 % of control
- T/C (dose: 200.0 mg/kg/injection, schedule: Q01DX001 (ip), vehicle: Klucel (hydroxypropylcellulose) (HPC)): 97 % of control
- T/C [3]: 93 % of control

SMILES: CCN(CC)CCn1[nH]c2c3ccc(=O)cc3sc3c(NCCN)ccc1c32
- T/C (dose: 3.12 mg/kg/injection, schedule: Q01DX005 (ip), vehicle: water): 122 % of control and 229 % of control and 242 % of control
- T/C (dose: 6.25 mg/kg/injection, schedule: Q01DX005 (ip), vehicle: water): 184 % of control and 250 % of control and 280 % of control
- T/C (dose: 12.5 mg/kg/injection, schedule: Q01DX005 (ip), vehicle: water): 166 % of control and 194 % of control and 271 % of control
